Results: ChEMBL document CHEMBL1140771, “Heteroallyl-containing 5-nitrofuranes as new anti-Trypanosoma cruzi agents with a dual mechanism of action” (Bioorg Med Chem, 2008)
Converted amounts (≈) assume the structure as drawn.

Legend:
Trypanosoma cruzi [1] = assay: Inhibition of sterol biosynthesis in Trypanosoma cruzi EP epimastigotes assessed as exogenous cholesterol levels at 30 uM after 120 hrs; type: functional; set-up: scale not given: the % may be the effect or the level left
Trypanosoma cruzi [2] = assay: Inhibition of sterol biosynthesis in Trypanosoma cruzi EP epimastigotes assessed as 24-ethyl-5,7,22-cholestatrien-3beta-ol levels at 30 uM after 120 hrs; type: functional; set-up: scale not given: the % may be the effect or the level left
Trypanosoma cruzi [3] = assay: Inhibition of sterol biosynthesis in Trypanosoma cruzi EP epimastigotes assessed as ergosta-5,7-24(24')-trien-3beta-ol levels at 30 uM after 120 hrs; type: functional; set-up: scale not given: the % may be the effect or the level left
Trypanosoma cruzi [4] = assay: Inhibition of sterol biosynthesis in Trypanosoma cruzi EP epimastigotes assessed as ergosterol levels at 30 uM after 120 hrs; type: functional; set-up: scale not given: the % may be the effect or the level left
Trypanosoma cruzi [5] = assay: Inhibition of sterol biosynthesis in Trypanosoma cruzi EP epimastigotes assessed as endogenous squalene levels at 30 uM after 120 hrs; type: functional; set-up: scale not given: the % may be the effect or the level left
Trypanosoma cruzi [6] = assay: Antitrypanosomal activity against Trypanosoma cruzi EP epimastigotes after 96 hrs; type: functional
Trypanosoma cruzi [7] = assay: Inhibition of sterol biosynthesis in Trypanosoma cruzi EP epimastigotes assessed as ergosta-5,7-dien-3beta-ol levels at 30 uM after 120 hrs; type: functional; set-up: scale not given: the % may be the effect or the level left
Vero = assay: Cytotoxicity against african green monkey Vero cells; type: cell-based; conditions: Chlorocebus sabaeus
Trypanosoma cruzi [8] = assay: Inhibition of sterol biosynthesis in Trypanosoma cruzi EP epimastigotes assessed as exogenous cholesterol levels at 10 uM after 120 hrs; type: functional; set-up: scale not given: the % may be the effect or the level left
Trypanosoma cruzi [9] = assay: Antitrypanosomal activity against Trypanosoma cruzi EP amastigotes; type: functional, organism-based
Trypanosoma cruzi [10] = assay: Effect on oxygen redox cycling in Trypanosoma cruzi Y epimastigotes assessed as rate of oxygen consumption at 80 uM in presence of cyanide relative to control; type: functional
Trypanosoma cruzi [11] = assay: Effect on oxygen redox cycling in Trypanosoma cruzi Y epimastigotes assessed as rate of oxygen consumption at 120 uM in presence of cyanide relative to control; type: functional
Trypanosoma cruzi [12] = assay: Effect on oxygen uptake in Trypanosoma cruzi Y epimastigotes assessed as rate of oxygen consumption at 80 uM relative to control; type: functional
Trypanosoma cruzi [13] = assay: Antitrypanosomal activity against Trypanosoma cruzi Y epimastigotes after 48 hrs by MTT assay; type: functional, organism-based
Trypanosoma cruzi [14] = assay: Effect on oxygen uptake in Trypanosoma cruzi Y epimastigotes assessed as rate of oxygen consumption at 120 uM relative to control; type: functional
Trypanosoma cruzi [15] = assay: Antitrypanosomal activity against Trypanosoma cruzi EP amastigotes in Vero cells after 96 hrs; type: functional
Trypanosoma cruzi [16] = assay: Inhibition of sterol biosynthesis in Trypanosoma cruzi EP epimastigotes assessed as endogenous squalene levels at 10 uM after 120 hrs; type: functional; set-up: scale not given: the % may be the effect or the level left
Trypanosoma cruzi [17] = assay: Inhibition of sterol biosynthesis in Trypanosoma cruzi EP epimastigotes assessed as ergosta-5,7-24(24')-trien-3beta-ol levels at 3 uM after 120 hrs; type: functional; set-up: scale not given: the % may be the effect or the level left
Trypanosoma cruzi [18] = assay: Inhibition of sterol biosynthesis in Trypanosoma cruzi EP epimastigotes assessed as 24-ethyl-5,7,22-cholestatrien-3beta-ol levels at 3 uM after 120 hrs; type: functional; set-up: scale not given: the % may be the effect or the level left
Trypanosoma cruzi [19] = assay: Inhibition of sterol biosynthesis in Trypanosoma cruzi EP epimastigotes assessed as 24-ethyl-5,7-cholestadien-3beta-ol levels at 3 uM after 120 hrs; type: functional; set-up: scale not given: the % may be the effect or the level left
Trypanosoma cruzi [20] = assay: Inhibition of sterol biosynthesis in Trypanosoma cruzi EP epimastigotes assessed as endogenous squalene levels at 3 uM after 120 hrs; type: functional; set-up: scale not given: the % may be the effect or the level left
Trypanosoma cruzi [21] = assay: Effect on oxygen redox cycling in Trypanosoma cruzi Y epimastigotes assessed as rate of oxygen consumption at 60 uM in presence of cyanide relative to control; type: functional
Trypanosoma cruzi [22] = assay: Inhibition of sterol biosynthesis in Trypanosoma cruzi EP epimastigotes assessed as ergosterol levels at 10 uM after 120 hrs; type: functional; set-up: scale not given: the % may be the effect or the level left
Trypanosoma cruzi [23] = assay: Inhibition of sterol biosynthesis in Trypanosoma cruzi EP epimastigotes assessed as ergosta-5,7-dien-3beta-ol levels at 3 uM after 120 hrs; type: functional; set-up: scale not given: the % may be the effect or the level left
Trypanosoma cruzi [24] = assay: Inhibition of sterol biosynthesis in Trypanosoma cruzi EP epimastigotes assessed as exogenous cholesterol levels at 3 uM after 120 hrs; type: functional; set-up: scale not given: the % may be the effect or the level left
Trypanosoma cruzi [25] = assay: Inhibition of sterol biosynthesis in Trypanosoma cruzi EP epimastigotes assessed as ergosterol levels at 3 uM after 120 hrs; type: functional; set-up: scale not given: the % may be the effect or the level left
Trypanosoma cruzi [26] = assay: Effect on oxygen uptake in Trypanosoma cruzi Y epimastigotes assessed as rate of oxygen consumption at 60 uM relative to control; type: functional
Trypanosoma cruzi [27] = assay: Effect on oxygen redox cycling in Trypanosoma cruzi Y epimastigotes assessed as rate of oxygen consumption at 166 uM in presence of cyanide relative to control; type: functional
Trypanosoma cruzi [28] = assay: Effect on oxygen uptake in Trypanosoma cruzi Y epimastigotes assessed as rate of oxygen consumption at 166 uM relative to control; type: functional
Trypanosoma cruzi [29] = assay: Inhibition of sterol biosynthesis in Trypanosoma cruzi EP epimastigotes assessed as ergosta-5,7-24(24')-trien-3beta-ol levels at 10 uM after 120 hrs; type: functional; set-up: scale not given: the % may be the effect or the level left
Trypanosoma cruzi [30] = assay: Inhibition of sterol biosynthesis in Trypanosoma cruzi EP epimastigotes assessed as ergosta-5,7-dien-3beta-ol levels at 10 uM after 120 hrs; type: functional; set-up: scale not given: the % may be the effect or the level left
Trypanosoma cruzi [31] = assay: Inhibition of sterol biosynthesis in Trypanosoma cruzi EP epimastigotes assessed as 24-ethyl-5,7-cholestadien-3beta-ol levels at 10 uM after 120 hrs; type: functional; set-up: scale not given: the % may be the effect or the level left

Row | Compound | Activity (Trypanosoma cruzi [1]) | Activity (Trypanosoma cruzi [2]) | Activity (Trypanosoma cruzi [4]) | Activity (Trypanosoma cruzi [5]) | MIC (Trypanosoma cruzi [6]) | IC50 (Vero) | Activity (Trypanosoma cruzi [8]) | IC50 (Trypanosoma cruzi [9]) | IC50 (Trypanosoma cruzi [13]) | MIC (Trypanosoma cruzi [15]) | Activity (Trypanosoma cruzi [16]) | Activity (Trypanosoma cruzi [18]) | Activity (Trypanosoma cruzi [20]) | Activity (Trypanosoma cruzi [23]) | Activity (Trypanosoma cruzi [24]) | Activity (Trypanosoma cruzi [25]) | other results
1 | C=CCOC(=O)N/N=C/C=C/c1ccc([N+](=O)[O-])o1 | 29.4% | 10.6% | 15% | 36.4% | > 30 µM |  |  |  |  |  |  |  |  |  |  |  | Activity (Trypanosoma cruzi [3]): 4%; Activity (Trypanosoma cruzi [7]): 4.6%
2 | C=C(C)CNC(=O)N/N=C/c1ccc([N+](=O)[O-])o1 |  |  |  |  | 10 µM (≈ 2.52 µg/mL) | 32.1 µM | 31.9% | 900 nM | 3.8 µM | 10 µM (≈ 2.52 µg/mL) | 68.1% |  |  |  |  |  | Activity (Trypanosoma cruzi [10]): 33%; Activity (Trypanosoma cruzi [11]): 27%; Activity (Trypanosoma cruzi [12]): 110%; Activity (Trypanosoma cruzi [14]): 148%
3 | O=C(N/N=C/c1ccc([N+](=O)[O-])o1)Oc1ccccc1 |  |  |  |  | 10 µM (≈ 2.75 µg/mL) | 19.4 µM | 35% | 2300 nM | 10.6 µM | 30 µM (≈ 8.26 µg/mL) | 60.6% | 9% | 39.1% | 6% | 32.3% | 7.6% | Activity (Trypanosoma cruzi [17]): 2.4%; Activity (Trypanosoma cruzi [19]): 3.6%; Activity (Trypanosoma cruzi [21]): 31%; Activity (Trypanosoma cruzi [22]): 4.4%; Activity (Trypanosoma cruzi [26]): 105%
4 | C=CCOC(=O)N/N=C/c1ccc([N+](=O)[O-])o1 | 53.1% | 6.8% | 7% | 33.1% | 30 µM (≈ 7.18 µg/mL) |  |  |  |  |  |  |  |  |  |  |  | 
5 | O=C(N/N=C/C=C/c1ccc([N+](=O)[O-])o1)Oc1ccccc1 |  |  |  |  | 3 µM (≈ 0.904 µg/mL) | 9.1 µM | 8.1% | 310 nM | 6.7 µM | 3 µM (≈ 0.904 µg/mL) | 91.9% |  | 45.2% |  | 46.9% | 7.9% | Activity (Trypanosoma cruzi [27]): 8%; Activity (Trypanosoma cruzi [28]): 88%
6 | O=C(N/N=C/c1ccc([N+](=O)[O-])o1)OC/C=C/c1ccccc1 | 22% | 7.8% | 5.8% | 64.4% | 30 µM (≈ 9.46 µg/mL) |  | 52.5% |  |  |  | 16% |  |  |  |  |  | Activity (Trypanosoma cruzi [29]): 2.3%; Activity (Trypanosoma cruzi [22]): 10.4%; Activity (Trypanosoma cruzi [30]): 5%
7 | O=C(N/N=C/C=C/c1ccc([N+](=O)[O-])o1)OC/C=C/c1ccccc1 |  |  |  |  | 10 µM (≈ 3.41 µg/mL) | 11.1 µM | 6.7% | 650 nM | 3.7 µM | 10 µM (≈ 3.41 µg/mL) | 93.3% | 16% | 19% | 8% | 33.9% | 21% | Activity (Trypanosoma cruzi [17]): 2.1%; Activity (Trypanosoma cruzi [31]): 6.7%; Activity (Trypanosoma cruzi [10]): 38%; Activity (Trypanosoma cruzi [11]): 40%; Activity (Trypanosoma cruzi [12]): 89%; Activity (Trypanosoma cruzi [14]): 160%
8 | C=C(C)CNC(=O)N/N=C/C=C/c1ccc([N+](=O)[O-])o1 |  |  |  |  | 10 µM (≈ 2.78 µg/mL) |  | 9.2% |  |  |  | 90.8% | 10.8% | 44.4% | 6.1% | 20.3% | 18.4% | 
